Measurements from patent US20120029418A1, “COMPOSITION AND METHOD FOR PHOTODYNAMIC DISINFECTION” (Advanced Photodynamic Technologies, Inc., priority 2010, published 2012).
Like-named read-outs stand apart in the source and are kept apart here.

Columns and labels:
[1] = system: polymicrobial biofilms containing MRPA and MRSA; assay: Example I: photodynamic disinfection of polymicrobial biofilm discs; type: cell-based
Protocol: (§1) An in vitro study was conducted on polymicrobial biofilms containing MRPA and MRSA using the following compositions: (i) compositions each comprising EDTA at one of the following concentrations: 0.5 mM (0.014612% w/v), 0.75 mM, 1.0 mM and 1.25 mM; (ii) composition comprising of methylene blue at a concentration of 0.05% w/v; (iii) compositions each comprising methylene blue at a concentration of 0.05% w/v and EDTA at one of the following concentrations: 0.5 mM, 0.75 mM, 1.0 mM and 1.25 mM. Clinical isolates of MRPA and MRSA were used in this study. Overnight tryptic soy broth (Remel, Lenexa, Kans.) cultures were centrifuged for 15 minutes at 5,000 RPM. The supernatants were removed and the cells washed and resuspended in 1× phosphate buffered saline (PBS) by alternate rounds of centrifugation for 2 minutes at 12.1×g and resuspension. Resulting bacterial suspensions were diluted with PBS to obtain approximately 1.5×10^5 cells/mL of each bacterium measured using a CrystalSpec nephlometer (BD Diagnostic Systems, Sparks, Md.). The suspensions were then combined. […]
(§2) Thereafter, all of the biofilm discs were each placed in a sterile 50 mL centrifuge tube with 1 mL of PBS, vortexed vigorously for one minute. […] The colonies were counted by a Protos automated counter (Synoptics, Frederick, Md.) to determine the total number of viable bacteria and expressed as colony forming units (CFU). […]

planktonic MRPA and MRSA = assay: Example IV: planktonic MRPA and MRSA study; type: cell-based; conditions: for planktonic MRPA and MRSA reduction compared to the control: methylene blue 0.005% w/v, no EDTA
Protocol: An in vitro study was conducted on planktonic MRPA and MRSA using the following compositions. (i) compositions each comprising EDTA at One of the following concentrations: 0.005 mM, 0.01 mM, 0.025 mM, 0:05 mM (0.0014612% w/v), 0.075 mM (0.0021918% w/v), 0.1 mM, 0.175 mM, 0.25 mM and 0.4 mM (0.0116896% w/v); (ii) composition comprising of methylene blue at a concentration of 0.005% w/v; and (iii) compositions each comprising of methylene blue at a concentration of 0.005% w/v with EDTA at one of the following concentrations: 0.005 mM, 0.01 mM, 0:025 mM, 0.05 mM, 0.075 mM, 0.1 mM 0.175 mM, 0.25 mM and 0.4 mM. The planktonic MRPA and MRSA samples were prepared in the same fashion as described in Example 1 in order to obtain approximately 1.5×10^8 cells/mL of MRPA and approximately 1.5×10^8 cells/mL of MRSA which were then combined.
Each of the compositions discussed above was prepared and then mixed with the combined bacterial solution of MRPA and MRSA and incubated for 30 seconds (“treated samples”). Thereafter, test tubes were prepared each containing 50 μl of one of the treated samples. Some of these test tubes were kept in dark incubation for 400 seconds while the remaining test tubes were exposed to 664 nm light using a non-laser light at a power density of 100 mW/cm^2 and a light energy dose of 10 J/cm^2.
Thereafter, a cotton-tipped swab (Puritan, Guilford, Me.) was dipped into the suspension contained within each test tube, placed in 1 mL of PBS With the stick broken off, and then vortexed for 3-5 seconds (“test samples”). […] The colonies were counted by a Protos automated counter (Synoptics, Frederick, Md.) to determine the number of viable bacteria and expressed as colony forming units (CFU). […] Counts for all experimental and control conditions were averaged and expressed as CFU/ml.
The planktonic MRPA and MRSA reduction rate was calculated as surviving CFU/ml in experimental conditions vs. the control (i.e., test samples that received no treatment) expressed as a log10 reduction from control and shown in FIGS. 6-7.

[2] = system: polymicrobial biofilms containing MRPA and MRSA; assay: Example II: repeat polymicrobial biofilm study, protocol of Example I; type: cell-based; conditions: FIG. 2; methylene blue 0.05% w/v, no EDTA
Protocol: as §1, §2

[3] = system: Pseudomonas aeruginosa ATCC # 9027 in polymicrobial biofilms; assay: Example III: polymicrobial biofilm study, Pseudomonas aeruginosa count; type: cell-based; conditions: no EDTA, 669 nm, 72 J/cm^2
Protocol: An in vitro study was conducted on polymicrobial biofilms containing MRSA and Pseudomonas aeruginosa. Stock cultures of MRSA ATCC # 33592 and Pseudomonas aeruginosa ATCC # 9027 were grown aerobically overnight on tryptic soy agar, harvested individually, and suspended in PBS solution with MRSA at a concentration of ˜2×10^8 CFU/ml and Pseudomonas aeruginosa at a concentration of ˜3×10^6 CFU/ml. Cell densities were measured as a function of absorbance at 420 nm using a Genesys 10 spectrophotometer (Thermo Scientific, Pittsburgh, Pa.). Pseudomonas aeruginosa inocula were then serial diluted in PBS to a concentration of ˜3×10^4 CFU/ml. The two suspended inocula (MRSA and Pseudomonas aeruginosa) were mixed at a ratio of 1:1 and then further diluted 1:40 into tryptic soy broth to achieve the biofilm inoculum of having a MRSA final concentration of ˜2.5×10^6 CFU/ml and Pseudomonas aeruginosa at a final concentration of ˜3.75×10^3 CFU/ml
The biofilm inoculum, prepared as described above, was then pipetted onto 8 mm diameter sterile silicone discs placed inside a 24-well culture plate with 600 μl of the biofilm inoculum per well. The plates were then allowed to shake for 24 hours at 125 rotations per minute using an Innova 200 platform gyrorotary shaker (New Brunswick Scientific Co, Edison N.J.) at 35° C. After 24 hours, all residual liquid from each well was removed and 600 μl of sterile tryptic soy broth was added to each well. […]
Immediately following illumination, the glass cover slip was removed carefully using sterile forceps and biofilm disc surfaces were swabbed using a calcium alginate swab following a reproducible “X” pattern. […] Colony counts were counted separately for each bacterial species (i.e., MRSA and Pseudomonas aeruginosa) providing differentiation of reduction for each of the bacterial species. Counts for all experimental and control conditions were averaged and expressed as CFU/ml. The bacteria reduction rate was calculated as surviving CFU/ml in experimental conditions vs. the control expressed as a log10 reduction from the control. […]

[4] = cited from earlier work

SMILES	biofilm bacterial count reduction ([1]; EDTA alone at 0.5 mM, 0.75 mM, 1.0 mM and 1.25 mM)	bacterial count reduction (planktonic MRPA and MRSA; EDTA alone at 0.005 mM to 0.4 mM, without light (dark incubation for 400 seconds))	bacterial reduction compared to the control ([1]; FIG. 1, methylene blue 0.05% w/v, no EDTA, 664 nm, 45 J/cm^2)	bacterial reduction compared to the control [2]	Pseudomonas aeruginosa reduction compared to the control ([3]; FIG. 3, methylene blue 0.01% w/v)	Pseudomonas aeruginosa reduction compared to the control ([3]; FIG. 4, methylene blue 0.03% w/v)	Pseudomonas aeruginosa reduction compared to the control ([3]; FIG. 5, methylene blue 0.05% w/v)	planktonic MRPA and MRSA reduction compared to the control (planktonic MRPA and MRSA; FIG. 6, without any light (dark incubation 400 seconds))	planktonic MRPA and MRSA reduction compared to the control (planktonic MRPA and MRSA; FIG. 7, with light treatment (664 nm, 10 J/cm^2))	yield of the singlet oxygen generation ([4]; pH 5)	yield of the singlet oxygen generation ([4]; pH 9)
O=C(O)CN(CCN(CC(=O)O)CC(=O)O)CC(=O)O [EDTA, ethylenediaminetetraacetic acid]	did not result in any statistically significant biofilm bacterial count reduction	did not result in any statistically significant bacterial count reduction									
CN(C)c1ccc2nc3ccc(=[N+](C)C)cc-3sc2c1 [methylene blue]			2.5 log10	3.4 log10	2.9 log10	2.9 log10	2.6 log10	2.4 log10	3.5 log10	0.2	0.94
